{"source": "patent US10968186B2", "about": "“Ascochlorin derivative and use thereof as AMPK activator” (priority 2016, dated 2021)", "key": {"[1]": {"test": "Stability against mouse liver microsomes", "type": "in vitro ADME", "settings": "for Liver microsome stability remaining % after 60 min incubation with NADPH, mouse LM: 2 μM compound", "method": "(§1) Determination of Stability Against Mouse and Human Mirosomes\n(§2) Pooled human liver microsomes (Cat. 452161; Lot. 23418) were purchased from Corning and pooled male mouse liver microsomes (Cat. M1000; Lot. 1210302) were purchased from Xenotech. Microsomes were stored at −80° C. prior to use. 40 μL of ultra-pure H2O was used instead of NADPH solution in the negative control. The negative control was used to exclude the misleading factor that was resulted from instability of chemical itself. Samples with NADPH were prepared in duplicate. Negative controls were prepared in singlet.\n(§3) The reaction was started with the addition of 4 μL of 200 μM compound solution to each master solution to get the final concentration of 2 μM. Verapamil was used as positive control in the assay. Aliquots of 50 μL were taken from the reaction solution at 0, 15, 30, 45 and 60 min. The reaction was stopped by addition of 4 volumes of cold acetonitrile with IS (200 nM imipramine, 200 nM labetalol and 2 μM ketoprofen). Samples were centrifuged at 3,220 g for 40 minutes. Aliquot of […] of the supernatant was mixed with 90 μL of ultra-pure H2O and then was used for LC-MS/MS analysis. Results are shown in Table 3 by indicating remaining % of the test compound after 60 minutes incubation with liver microsomes from human and mouse in the presence of NADPH."}, "[2]": {"test": "Stability against human liver microsomes", "type": "in vitro ADME", "settings": "2 μM compound", "method": "as §1, §2, §3"}, "[3]": {"test": "Solubility in pH4.0 and pH7.4 phosphate buffer solution", "type": "physicochemical", "settings": "phosphate buffer (PBS), aqueous buffer, kinetic from dmso stock, 2 hr incubation, 25° C.", "method": "1) Preparation of Stock Solutions\nDiclofenac was used as positive control in the assay.\n2) Procedures for Solubility Determination\nThis study was performed in duplicate. […] The filtered samples were diluted with methanol.\n3) Samples Analyzed by LC-MS/MS"}, "[4]": {"settings": "pH 4.0 phosphate buffer solution, read-out: Solubility, pH 4.0 PBS"}, "[5]": {"settings": "pH 7.4 phosphate buffer solution, read-out: Solubility, pH 7.4 PBS"}}, "note": "Read-outs that look alike come from different tables or passages of the source.", "data": [{"smiles": "COc1c(Cl)c(C)c(/C=N/O)c(O)c1C/C=C(C)/C=C/[C@@]1(C)[C@H](C)CC/C(=N\\O)[C@@H]1C", "note": "[Compound 3, 4-chloro-2-[(2E,4E)-5-[(1R,2R,3E,6R)-3-(hydroxyimino)-1,2,6-trimethylcyclohexyl]-3-methylpenta-2,4-dien-1-yl]-6-[(1E)-(hydroxyimino)methyl]-3-methoxy-5-methylphenol]", "values": [{"measurement": "Liver microsome stability remaining % after 60 min incubation with NADPH, mouse LM", "setting": "[1]", "value": 58, "unit": "%"}, {"measurement": "Liver microsome stability remaining % after 60 min incubation with NADPH, human LM", "setting": "[2]", "value": 74, "unit": "%"}]}, {"smiles": "CO/N=C/c1c(C)c(Cl)c(OC)c(C/C=C(C)/C=C/[C@@]2(C)[C@H](C)CC/C(=N\\OC)[C@@H]2C)c1O", "note": "[Compound 8, 4-chloro-3-methoxy-2-[(2E,4E)-5-[(1R,2R,3E,6R)-3-(methoxyimino)-1,2,6-trimethylcyclohexyl]-3-methylpenta-2,4-dien-1-yl]-6-[(1E)-(methoxyimino)methyl]-5-methylphenol]", "values": [{"measurement": "Liver microsome stability remaining % after 60 min incubation with NADPH, mouse LM", "setting": "[1]", "value": 89, "unit": "%"}, {"measurement": "Liver microsome stability remaining % after 60 min incubation with NADPH, human LM", "setting": "[2]", "value": 100, "unit": "%"}]}, {"smiles": "CO/N=C/c1c(C)c(Cl)c(OCF)c(C/C=C(C)/C=C/[C@@]2(C)[C@H](C)CC/C(=N\\OC)[C@@H]2C)c1O", "note": "[Compound 9, 4-chloro-3-(fluoromethoxy)-2-[(2E,4E)-5-[(1R,2R,3E,6R)-3-(methoxyimino)-1,2,6-trimethylcyclohexyl]-3-methylpenta-2,4-dien-1-yl]-6-[(1E)-(methoxyimino)methyl]-5-methylphenol]", "values": [{"measurement": "Liver microsome stability remaining % after 60 min incubation with NADPH, mouse LM", "setting": "[1]", "value": 83, "unit": "%"}, {"measurement": "Liver microsome stability remaining % after 60 min incubation with NADPH, human LM", "setting": "[2]", "value": 100, "unit": "%"}]}, {"smiles": "CO/N=C/c1c(C)c(Cl)c(OC)c(C/C=C(C)/C=C/[C@@]2(C)[C@H](C)CC/C(=N\\O)[C@@H]2C)c1O", "note": "[Compound 10, 4-chloro-2-[(2E,4E)-5-[(1R,2R,3E,6R)-3-(hydroxyimino)-1,2,6-trimethylcyclohexyl]-3-methylpenta-2,4-dien-1-yl]-3-methoxy-6-[(1E)-(methoxyimino)methyl]-5-methylphenol]", "values": [{"measurement": "Liver microsome stability remaining % after 60 min incubation with NADPH, mouse LM", "setting": "[1]", "value": 63, "unit": "%"}, {"measurement": "Liver microsome stability remaining % after 60 min incubation with NADPH, human LM", "setting": "[2]", "value": 83, "unit": "%"}]}, {"smiles": "CO/N=C/c1c(C)c(Cl)c(OCF)c(C/C=C(C)/C=C/[C@@]2(C)[C@H](C)CC/C(=N\\O)[C@@H]2C)c1O", "note": "[Compound 11, 4-chloro-3-(fluoromethoxy)-2-[(2E,4E)-5-[(1R,2R,3E,6R)-3-(hydroxyimino)-1,2,6-trimethylcyclohexyl]-3-methylpenta-2,4-dien-1-yl]-6-[(1E)-(methoxyimino)methyl]-5-methylphenol]", "values": [{"measurement": "Liver microsome stability remaining % after 60 min incubation with NADPH, mouse LM", "setting": "[1]", "value": 56, "unit": "%"}, {"measurement": "Liver microsome stability remaining % after 60 min incubation with NADPH, human LM", "setting": "[2]", "value": 81, "unit": "%"}]}, {"smiles": "CO/N=C/c1c(C)c(Cl)c(OC)c(C/C=C(C)/C=C/[C@@]2(C)[C@H](C)CCC(C)(O)[C@@H]2C)c1O", "note": "(stereo partly drawn) [Compound 14, (E)-3-chloro-6-hydroxy-5-((2E,4E)-5-((1R,2R,6R)-3-hydroxy-1,2,3,6-tetramethylcyclohexyl)-3-methylpenta-2,4-dien-1-yl)-4-methoxy-2-methylbenzaldehyde O-methyl oxime]", "values": [{"measurement": "Liver microsome stability remaining % after 60 min incubation with NADPH, mouse LM", "setting": "[1]", "value": 88, "unit": "%"}, {"measurement": "Liver microsome stability remaining % after 60 min incubation with NADPH, human LM", "setting": "[2]", "value": 99, "unit": "%"}]}, {"smiles": "CO/N=C/c1c(C)c(Cl)c(OC)c(C/C=C(C)/C=C/[C@@]2(C)[C@H](C)CC/C(=N\\OCCN3CCOCC3)[C@@H]2C)c1O", "note": "[Compound 16, 4-chloro-3-methoxy-6-[(1E)-(methoxyimino)methyl]-5-methyl-2-[(2E,4E)-3-methyl-5-[(1R,2R,3E,6R)-1,2,6-trimethyl-3-[[2-(morpholin-4-yl)ethoxy]imino]cyclohexyl]penta-2,4-dien-1-yl]phenol]", "values": [{"measurement": "Liver microsome stability remaining % after 60 min incubation with NADPH, mouse LM", "setting": "[1]", "value": 76, "unit": "%"}, {"measurement": "Liver microsome stability remaining % after 60 min incubation with NADPH, human LM", "setting": "[2]", "value": 56, "unit": "%"}]}, {"smiles": "CCOC(=O)CO/N=C1\\CC[C@@H](C)[C@](C)(/C=C/C(C)=C/Cc2c(O)c(/C=N/OC)c(C)c(Cl)c2OC)[C@H]1C", "note": "[Compound 18, ethyl 2-([[(1E,2R,3R,4R)-3-[(1E,3E)-5-[3-chloro-6-hydroxy-2-methoxy-5-[(1E)-(methoxyimino)methyl]-4-methylphenyl]-3-methylpenta-1,3-dien-1-yl]-2,3,4-trimethylcyclohexylidene]amino]oxy)acetate]", "values": [{"measurement": "Liver microsome stability remaining % after 60 min incubation with NADPH, mouse LM", "setting": "[1]", "value": 59, "unit": "%"}, {"measurement": "Liver microsome stability remaining % after 60 min incubation with NADPH, human LM", "setting": "[2]", "value": 86, "unit": "%"}]}, {"smiles": "CO/N=C/c1c(C)c(Cl)c(OC)c(C/C=C(C)/C=C/[C@@]2(C)[C@H](C)CCC(NC3CC3)[C@@H]2C)c1O", "note": "(stereo partly drawn) [Compound 23, 4-chloro-2-[(2E,4E)-5-[(1R,2R,6R)-3-(cyclopropylamino)-1,2,6-trimethylcyclohexyl]-3-methylpenta-2,4-dien-1-yl]-3-methoxy-6-[(1E)-(methoxyimino)methyl]-5-methylphenol]", "values": [{"measurement": "Liver microsome stability remaining % after 60 min incubation with NADPH, mouse LM", "setting": "[1]", "value": 98, "unit": "%"}, {"measurement": "Liver microsome stability remaining % after 60 min incubation with NADPH, human LM", "setting": "[2]", "value": 74, "unit": "%"}]}, {"smiles": "CO/N=C/c1c(C)c(Cl)c(OC)c(C/C=C(C)/C=C/[C@@]2(C)[C@H](C)CCC(NC3COC3)[C@@H]2C)c1O", "note": "(stereo partly drawn) [Compound 25, 4-chloro-3-methoxy-6-[(1E)-(methoxyimino)methyl]-5-methyl-2-[(2E,4E)-3-methyl-5-[(1R,2R,6R)-1,2,6-trimethyl-3-[(oxetan-3-yl)amino]cyclohexyl]penta-2,4-dien-1-yl]phenol]", "values": [{"measurement": "Liver microsome stability remaining % after 60 min incubation with NADPH, mouse LM", "setting": "[1]", "value": 39, "unit": "%"}, {"measurement": "Liver microsome stability remaining % after 60 min incubation with NADPH, human LM", "setting": "[2]", "value": 66, "unit": "%"}]}, {"smiles": "CC(/C=C/[C@@]1(C)[C@H](C)CC/C(=N\\OCC(=O)O)[C@@H]1C)=C\\Cc1c(O)c(C=O)c(C)c(Cl)c1OCF", "note": "[Compound 26, 2-([[(1E,2R,3R,4R)-3-[(1E,3E)-5-[3-chloro-2-(fluoromethoxy)-5-formyl-6-hydroxy-4-methylphenyl]-3-methylpenta-1,3-dien-1-yl]-2,3,4-trimethylcyclohexylidene]amino]oxy)acetic Acid]", "values": [{"measurement": "solubility at 2 h", "setting": "[3]; [4]", "value": 192, "unit": "µM"}, {"measurement": "solubility at 2 h", "setting": "[3]; [5]", "value": 12.3, "unit": "µM"}]}, {"smiles": "CC(/C=C/[C@@]1(C)[C@H](C)CC/C(=N\\OCC(=O)O)[C@@H]1C)=C\\Cc1c(O)c(/C=N/O)c(C)c(Cl)c1OCF", "note": "[Compound 27, 2-([[(1E,2R,3R,4R)-3-[(1E,3E)-5-[3-chloro-2-(fluoromethoxy)-6-hydroxy-5-[(1E)-(hydroxyimino)methyl]-4-methylphenyl]-3-methylpenta-1,3-dien-1-yl]-2,3,4-trimethylcyclohexylidene]amino]oxy)acetic Acid]", "values": [{"measurement": "solubility at 2 h", "setting": "[3]; [4]", "value": 165, "unit": "µM"}, {"measurement": "solubility at 2 h", "setting": "[3]; [5]", "value": 315, "unit": "µM"}, {"measurement": "Liver microsome stability remaining % after 60 min incubation with NADPH, mouse LM", "setting": "[1]", "value": 97, "unit": "%"}, {"measurement": "Liver microsome stability remaining % after 60 min incubation with NADPH, human LM", "setting": "[2]", "value": 99, "unit": "%"}]}, {"smiles": "COc1c(Cl)c(C)c(C=O)c(O)c1C/C=C(C)/C=C/[C@@]1(C)[C@H](C)CCC(=O)[C@@H]1C", "note": "[MAC, 3-chloro-6-hydroxy-4-methoxy-2-methyl-5-[(2E,4E)-3-methyl-5-[(1R,2R,6R)-1,2,6-trimethyl-3-oxocyclohexyl]penta-2,4-dien-1-yl]benzaldehyde, reference compound]", "values": [{"measurement": "solubility at 2 h", "setting": "[3]; [4]", "value": "< 0.08", "unit": "µM"}, {"measurement": "solubility at 2 h", "setting": "[3]; [5]", "value": 0.07, "unit": "µM"}, {"measurement": "metabolic stability: % remained after 1 hr incubation", "setting": "[1]; liver microsomes of human and mouse in the presence of NADPH, 1 hr", "value": 6, "unit": "%"}, {"measurement": "Liver microsome stability remaining % after 60 min incubation with NADPH, mouse LM", "setting": "[1]", "value": 6, "unit": "%"}, {"measurement": "Liver microsome stability remaining % after 60 min incubation with NADPH, human LM", "setting": "[2]", "value": 2, "unit": "%"}]}]}
